“And” between values parts separate entries of the source, which are not always exact repeats. Identical values can stand only once. Toxic doses and inconclusive results are not listed. Rule as the data show it: active = T/C of 150% or more; inactive = T/C below 125%.
Tested on: L1210 leukemia ip in BDF1 mice, survival T/C
Experiment: NCI In Vivo Anticancer Drug Screen. Data for tumor model L1210 Leukemia (intraperitoneal) in B6D2F1 (BDF1) mice
Conditions: endpoint: mean survival time, higher = longer survival
Outline: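 Value reflects the ratio of survival in compound-treated mice to survival in vehicle-treated controls, with both groups carrying the same transplanted tumor.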

[1] = dose: 100.0 mg/kg/injection, schedule: Q04DX003 (ip), vehicle: Klucel (hydroxypropylcellulose) (HPC)
[2] = dose: 200.0 mg/kg/injection, schedule: Q04DX003 (ip), vehicle: Klucel (hydroxypropylcellulose) (HPC)
[3] = dose: 400.0 mg/kg/injection, schedule: Q04DX003 (ip), vehicle: Klucel (hydroxypropylcellulose) (HPC)
[4] = dose: 100.0 mg/kg/injection, schedule: Q04DX002 (ip), vehicle: Klucel (hydroxypropylcellulose) (HPC)
[5] = dose: 400.0 mg/kg/injection, schedule: Q04DX002 (ip), vehicle: Klucel (hydroxypropylcellulose) (HPC)
[6] = dose: 100.0 mg/kg/injection, schedule: Q04DX003 (ip), vehicle: saline
[7] = dose: 200.0 mg/kg/injection, schedule: Q04DX003 (ip), vehicle: saline
[8] = dose: 100.0 mg/kg/injection, schedule: Q01DX001 (ip), vehicle: carboxymethylcellulose (CMC)
[9] = dose: 400.0 mg/kg/injection, schedule: Q01DX001 (ip), vehicle: carboxymethylcellulose (CMC)
[10] = dose: 50.0 mg/kg/injection, schedule: Q04DX003 (ip), vehicle: Klucel (hydroxypropylcellulose) (HPC)
[11] = dose: 100.0 mg/kg/injection, schedule: Q01DX009 (ip), vehicle: Klucel (hydroxypropylcellulose) (HPC)
[12] = dose: 200.0 mg/kg/injection, schedule: Q01DX009 (ip), vehicle: Klucel (hydroxypropylcellulose) (HPC)
[13] = dose: 400.0 mg/kg/injection, schedule: Q01DX009 (ip), vehicle: Klucel (hydroxypropylcellulose) (HPC)
[14] = dose: 100.0 mg/kg/injection, schedule: Q01DX001 (ip), vehicle: Klucel (hydroxypropylcellulose) (HPC)
[15] = dose: 100.0 mg/kg/injection, schedule: Q01DX001 (ip), vehicle: saline
[16] = dose: 200.0 mg/kg/injection, schedule: Q01DX001 (ip), vehicle: saline

Measured: T/C

c1ccc(-c2cn3ccccc3n2)cc1
inactive: dose: 100.0 mg/kg/injection, schedule: Q01DX001 (ip), vehicle: saline with Tween-80 94 % of control | [1] 96 % of control | dose: 200.0 mg/kg/injection, schedule: Q01DX001 (ip), vehicle: saline with Tween-80 92 % of control | [2] 94 % of control | dose: 400.0 mg/kg/injection, schedule: Q01DX001 (ip), vehicle: saline with Tween-80 94 % of control | [3] 98 % of control

O=C(Nc1ccc(Cl)c(Cl)c1)C(Cl)Cl
inactive: [4] 109 % of control | [5] 103 % of control

OCn1c2ccccc2c2ccccc21
inactive: dose: 100.0 mg/kg/injection, schedule: Q01DX001 (ip), vehicle: other 98 % of control | [4] 113 % of control | dose: 200.0 mg/kg/injection, schedule: Q01DX001 (ip), vehicle: other 92 % of control | dose: 200.0 mg/kg/injection, schedule: Q04DX002 (ip), vehicle: Klucel (hydroxypropylcellulose) (HPC) 94 % of control | dose: 400.0 mg/kg/injection, schedule: Q01DX001 (ip), vehicle: other 98 % of control | [5] 113 % of control

CCCOP(OCCC)OCCC
inactive: dose: 50.0 mg/kg/injection, schedule: Q01DX009 (ip), vehicle: saline 93 % of control | dose: 100.0 mg/kg/injection, schedule: Q01DX009 (ip), vehicle: saline 101 % of control | [6] 103 % of control | dose: 200.0 mg/kg/injection, schedule: Q01DX009 (ip), vehicle: saline 98 % of control | [7] 95 % of control

CC1(C)CC(N=Cc2ccccc2O)CC(C)(C)N1O
inactive: dose: 100.0 mg/kg/injection, schedule: Q04DX003 (ip), vehicle: saline with Tween-80 94 % of control | dose: 200.0 mg/kg/injection, schedule: Q04DX003 (ip), vehicle: saline with Tween-80 97 % of control | dose: 400.0 mg/kg/injection, schedule: Q04DX003 (ip), vehicle: saline with Tween-80 100 % of control

CCn1ncc2c(Nc3ccccc3)c(C(=O)c3ccccc3)cnc21
inactive: [1] 93 % of control | [2] 97 % of control | [3] 97 % of control

CCOC(=O)C(C)(N)CCOCc1ccccc1 (stereo unspecified)
inactive: dose: 50.0 mg/kg/injection, schedule: Q01DX001 (ip), vehicle: carboxymethylcellulose (CMC) 100 % of control | [8] 102 % of control | dose: 200.0 mg/kg/injection, schedule: Q01DX001 (ip), vehicle: carboxymethylcellulose (CMC) 100 % of control | [9] 104 % of control

Cc1ccc(S(=O)(=O)OCC2OC(OCc3ccccc3)C3OC(C)(C)OC23)cc1 (stereo unspecified)
inactive: [10] 91 % of control | [2] 88 % of control | [3] 92 % of control

c1ccc(CNC(Cc2ccccc2)c2ccc(OCc3ccccc3)cc2)cc1 (stereo unspecified)
inactive: [11] 93 % of control | [12] 89 % of control | [13] 89 % of control

ClCCN(CCCl)CCN1c2ccccc2Sc2ccccc21
inactive: dose: 9.37 mg/kg/injection, schedule: Q01DX009 (ip), vehicle: Klucel (hydroxypropylcellulose) (HPC) 114 % of control | dose: 12.5 mg/kg/injection, schedule: Q01DX001 (ip), vehicle: Klucel (hydroxypropylcellulose) (HPC) 114 % of control | dose: 12.5 mg/kg/injection, schedule: Q04DX003 (ip), vehicle: saline with Tween-80 103 % of control | dose: 16.5 mg/kg/injection, schedule: Q01DX001 (ip), vehicle: Klucel (hydroxypropylcellulose) (HPC) 100 % of control and 111 % of control | dose: 18.75 mg/kg/injection, schedule: Q01DX009 (ip), vehicle: Klucel (hydroxypropylcellulose) (HPC) 106 % of control | dose: 25.0 mg/kg/injection, schedule: Q01DX001 (ip), vehicle: Klucel (hydroxypropylcellulose) (HPC) 95 % of control and 112 % of control | dose: 25.0 mg/kg/injection, schedule: Q04DX003 (ip), vehicle: saline with Tween-80 108 % of control | dose: 29.0 mg/kg/injection, schedule: Q01DX015 (ip), vehicle: carboxymethylcellulose (CMC) 102 % of control | dose: 37.5 mg/kg/injection, schedule: Q01DX001 (ip), vehicle: Klucel (hydroxypropylcellulose) (HPC) 101 % of control and 122 % of control | dose: 37.5 mg/kg/injection, schedule: Q01DX009 (ip), vehicle: Klucel (hydroxypropylcellulose) (HPC) 89 % of control | dose: 50.0 mg/kg/injection, schedule: Q04DX003 (ip), vehicle: saline with Tween-80 92 % of control | dose: 85.0 mg/kg/injection, schedule: Q04DX003 (ip), vehicle: Klucel (hydroxypropylcellulose) (HPC) 115 % of control | dose: 88.8 mg/kg/injection, schedule: Q01DX001 (ip), vehicle: carboxymethylcellulose (CMC) 115 % of control | [14] 119 % of control | [8] 104 % of control | dose: 133.0 mg/kg/injection, schedule: Q01DX001 (ip), vehicle: carboxymethylcellulose (CMC) 113 % of control and 115 % of control

O=C(O)/C(Br)=C\c1cccc([N+](=O)[O-])c1
inactive: [15] 107 % of control | [16] 98 % of control | dose: 400.0 mg/kg/injection, schedule: Q01DX001 (ip), vehicle: saline 109 % of control

O=C(C[n+]1cccc(C(=O)Nc2ccccc2)c1)Nc1ccc(Cl)cc1
inactive: dose: 50.0 mg/kg/injection, schedule: Q04DX003 (ip), vehicle: saline 98 % of control | [15] 96 % of control | [6] 102 % of control | [16] 89 % of control | [7] 98 % of control

COc1ccc([N+](=O)[O-])cc1CN(C)C(C)C
inactive: dose: 12.5 mg/kg/injection, schedule: Q01DX009 (ip), vehicle: Klucel (hydroxypropylcellulose) (HPC) 97 % of control | dose: 12.5 mg/kg/injection, schedule: Q04DX003 (ip), vehicle: Klucel (hydroxypropylcellulose) (HPC) 97 % of control | dose: 25.0 mg/kg/injection, schedule: Q01DX009 (ip), vehicle: Klucel (hydroxypropylcellulose) (HPC) 97 % of control | dose: 25.0 mg/kg/injection, schedule: Q04DX003 (ip), vehicle: Klucel (hydroxypropylcellulose) (HPC) 100 % of control | dose: 50.0 mg/kg/injection, schedule: Q01DX009 (ip), vehicle: Klucel (hydroxypropylcellulose) (HPC) 92 % of control | [10] 97 % of control

CN=C(c1ccc(NC(=O)c2ccc(C(=O)Nc3ccc(C(=NC)N4CCOCC4)cc3)c(Cl)c2)cc1)N1CCOCC1
inactive: dose: 0.94 mg/kg/injection, schedule: Q01DX Z (ip), vehicle: carboxymethylcellulose (CMC) 104 % of control | dose: 1.87 mg/kg/injection, schedule: Q01DX Z (ip), vehicle: carboxymethylcellulose (CMC) 101 % of control | dose: 3.75 mg/kg/injection, schedule: Q01DX Z (ip), vehicle: carboxymethylcellulose (CMC) 98 % of control | dose: 7.5 mg/kg/injection, schedule: Q01DX Z (ip), vehicle: carboxymethylcellulose (CMC) 87 % of control | dose: 15.0 mg/kg/injection, schedule: Q01DX Z (ip), vehicle: carboxymethylcellulose (CMC) 91 % of control | dose: 30.0 mg/kg/injection, schedule: Q01DX Z (ip), vehicle: carboxymethylcellulose (CMC) 91 % of control | dose: 60.0 mg/kg/injection, schedule: Q01DX Z (ip), vehicle: carboxymethylcellulose (CMC) 91 % of control

O=C1CCCCCCCCCOC(=O)CCCCCCCCCO1
inactive: [14] 94 % of control | dose: 200.0 mg/kg/injection, schedule: Q01DX001 (ip), vehicle: Klucel (hydroxypropylcellulose) (HPC) 94 % of control | dose: 400.0 mg/kg/injection, schedule: Q01DX001 (ip), vehicle: Klucel (hydroxypropylcellulose) (HPC) 91 % of control

NC(=O)c1ccccc1OC(=O)Nc1ccc(F)c([N+](=O)[O-])c1
inactive: [11] 97 % of control | [12] 104 % of control | [13] 101 % of control

O=c1[nH]c(=O)n(CCCc2ccccc2)cc1-c1ccccc1
inactive: [9] 90 % of control

O=C1C=CC(=O)N1c1cccc(N2C(=O)C=CC2=O)c1
inactive: dose: 8.0 mg/kg/injection, schedule: Q04DX003 (ip), vehicle: saline 102 % of control | dose: 16.0 mg/kg/injection, schedule: Q04DX003 (ip), vehicle: saline 95 % of control

Reference: PubChem BioAssay AID248 (DTP/NCI, 2004)
